Patent US12527782B2, “Use of hexokinase 2/mitochondria-detaching compounds for treating hexokinase-2 (HK2)-expressing cancers” (Vidac Pharma Ltd., priority 2016, dated 2026)
Where two headings read alike, the source gives them in different places.

Legend:
A431 Skin SCC cells = test: XTT cell viability assay, A431; format: cell-based, human; settings: Cell line/XTT, 72 hr
Procedure: (§1) A431 (human skin SCC), HT-297.T (human AK), and HaCaT transformed normal keratinocyte cell lines were from ATCC (Manassas, VA) and were maintained in DMEM supplemented with 10% FCS, 4 mM L-Gln, 1 mM sodium pyruvate, 100 U/mL penicillin, 1 μg/mL streptomycin. Human HK1 and HK2 plasmids were purchased from Addgene (Cambridge, MA) and were purified from E. Coli. VDAC1 was purified from sheep liver mitochondria as described (Arbel et al. 2012, incorporated herein by reference). Human skin tissue microarray (SK208 and SK 805) were purchased from US Biomax Inc. (Rockville, MD).
(§2) For XTT assays, cells were plated in 96-well plates (5,000 cells per well) for 24 hours. Cells were then incubated with different concentrations of Formula C in triplicates for 72 hr in DMEM supplemented with 0.5% FCS and 5 mM Glucose. Cell viability was evaluated using 2,3-bis-(2-methoxy-4-nitro-5-sulfophenyl)-2H-tetrazolium-5-carboxanilide (XTT)-based colorimetric assay kit (Biological Industries Ltd., Kibbutz Beit-Haemek, Israel). The optical density was measured by an Infinite 200 ELISA reader at 450 nm and reference was measured at 630 nm (Tecan, Männedorf, Switzerland).

[1] = Phase 2a in subjects with actinic keratosis, pharmacokinetics; format: in vivo, human; settings: subjects with AK; topical application
Procedure: The Phase 2 clinical trial was a multiple-center randomized, double-blind, placebo-controlled, parallel-cohorts study to evaluate the efficacy, safety, tolerability, and pharmacokinetics of once-daily application of topical Formula C ointment (QD 200 mg) for 28 days in subjects with actinic keratosis. Subjects were followed for one or two months after they completed treatment (through day 56 or day 84). The primary and exploratory efficacy endpoints for the study were reduction in the number of lesions on days 56 and 84, respectively. Subjects were randomly assigned in a double-blind fashion to one of three parallel treatment cohorts (5%, or 10% Formula C, or placebo) at a ratio of 1:1:1. To qualify for the study, subjects aged 18 (inclusive) or older must have had 4-8 discrete Grade 1 or 2 AK lesions within a 25-centimeter squared area of the skin of their scalp or face. The study enrolled 93 subjects in the US and Israel.

[2] = Skin irritation in naïve SKH-1 mice; format: in vivo, mouse; settings: skin of naïve SKH-1 mice
[3] = test system: Lymphoma (Non-Hodgkin) LYXFNH HH (CTCL cell line HH); test: CFA / 3D clonogenic assay, LYXFNH HH; format: cell-based, human; settings: for IC50: CTCL cell line HH
Procedure: (§3) CFA was performed by Charles River Laboratories (Freiburg, Germany) in 96-well plate format according to a modified two-layer soft agar assay. The origin of the tumor xenografts has been described (Fiebig et al. 1989, incorporated herein by reference). The list of tumors used in this study is detailed in Table 1.
The cell lines tested were from a large collection of patient-derived (PDX) and cell line-derived (CDX) human tumor xenografts growing subcutaneously in immunodeficient nude mice (Oncotest GmbH, a Charles River Division). The majority of the xenografts have been directly transplanted from patients and passaged in nude mice. The xenografts retain most of the characteristics of the parental patient tumors including histology and sensitivity to anti-cancer drugs, and efficacy tests in tumor-bearing nude mice largely replicate the response of the donor patient to standard anti-cancer drugs. The cell lines were from publicly available cell lines, including cell lines derived from solid tumors and hematological malignancies. In the clonogenic assay, the capacity of tumor cells for anchorage-independent growth was investigated as colony formation in soft agar in the presence and absence of test compounds. For the assay, tumor cells were harvested from in vitro culture, or tumor cell suspensions were prepared directly from human tumor xenografts growing in nude mice. The cell suspensions also contained tumor stem cells, which are believed to mediate the metastatic and infiltrative potential of a tumor. […]
Formula C was investigated for antitumor potency and tumor type selectivity ex vivo in 11 human tumor models (5 tumor cell lines, 6 xenograft-derived cell suspensions) of various histotypes. Tests were carried out using a 3D clonogenic assay in 96-well format using an image based read-out.
The clonogenic assay was carried out in a 96 well plate format using ultra low attachment plates. […] Cultures were incubated at 37° C. and 7.5% CO2 in a humidified atmosphere for 8 to 14 days and monitored closely for colony growth using an inverted microscope. […]

A431 cells [4] = test: Apoptosis: cleaved caspase-3 ELISA, A431 cells; format: cell-based, human; settings: within 6 hours of treatment
Procedure: Apoptosis induction was determined by semi-quantification of cytochrome C levels in the mitochondrial fraction analyzed by WB, following 2 hours of treatment with Formula C in A431 cells. Cleaved caspase-3 levels were analyzed following 6 hours of Formula C treatment in A431 cells, using PathScan® Cleaved Caspase-3 Sandwich ELISA kit (CST, Danvers, MA).

[5] = test system: HaCaT normal immortal keratonocytes; test: XTT cell viability assay, HaCaT; format: cell-based, human; settings: Cell line/XTT, 72 hr
Procedure: as §1, §2

Skin SCC SXFS 627 = test: CFA, SXFS 627; format: cell-based, human; settings: PDX/CFA
Procedure: as §3

A431 cells [6] = test: Cellular ATP determination (CellTiter-Glo) in A431 cells; format: cell-based, human; settings: 2-hour incubation
Procedure: Cellular ATP levels were determined using CellTiter-Glo® Luminescent Cell Viability Assay kit (Promega, Madison, WI) following 2 hours of treatment at 37° C.

Breast MAXF 857 = test: CFA, MAXF 857; format: cell-based, human; settings: PDX/CFA
Procedure: as §3

CC/C=C\CC1C(=O)CCC1CC(=O)Oc1cccc2cccnc12 (centres unmarked) [Formula C]
IC50 (A431 Skin SCC cells): 14 nM | systemic exposure of VDA-1102 or its major metabolite [1]: No systemic exposure | skin irritation [2]: did not cause any irritation | IC50 ([3]; clonogenic assay in soft agar, read-out: relative IC50, colony formation): 1220 nM | IC50 ([3]; clonogenic assay, concentration at T/C=50%, read-out: absolute IC50, colony formation): 1200 nM | test concentration from which pronounced effects were observed ([3]; clonogenic assay, cell lines): ≥ 3 µM | cellular levels of cleaved caspase-3 (A431 cells [4]): increase in cellular levels of cleaved caspase-3 | IC50 [5]: 3370 nM | IC50 (Skin SCC SXFS 627): 1560 nM | reduction of cellular ATP levels (A431 cells [6]): ≤ 50% | IC50 (Breast MAXF 857): 1560 nM
